In the supplement of paper PMC10307832:

What was measured:
Assay in all cases: relative viability (nuclei count vs DMSO), 5 days (fraction); higher = more cells survive
[1] = compound: CC1=C(C=C(C=C1)NC(=O)C2=CC(=CC=C2)C(C)(C)C#N)NC3=CC4=C(C=C3)N=CN(C4=O)C [AZ628] + C[C@@H](Oc1cc(-c2cnn(C3CCNCC3)c2)cnc1N)c1c(Cl)ccc(F)c1Cl [Crizotinib] (partner 1 µM)
Method in brief: (§1)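 Cells from lung cancer lines were seeded into 1536-well plates and, one day later, dosed by pin tool. Treatments were either a single drug or a fixed dose of an anchor drug with five library-drug doses (not always all listed) in √10 steps. After 5 days, nuclei were stained in a one-step fixation (final 0.05% Triton X-100, 1% formaldehyde, 1 ug/ml Hoechst) and counted on 4× images, and relative viability is the treated-to-vehicle nuclei ratio, as the median of duplicate plates.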

[2] = compound: CC1=C(C=C(C=C1)NC(=O)C2=CC(=CC=C2)C(C)(C)C#N)NC3=CC4=C(C=C3)N=CN(C4=O)C [AZ628] + Cc1cc(Nc2cc(N3CCN(C)CC3)nc(Sc3ccc(NC(=O)C4CC4)cc3)n2)n[nH]1 [Tozasertib] (partner 0.1 µM)
Method in brief: as §1

[3] = compound: C[As](C)SC[C@H](NC(=O)CC[C@H](N)C(=O)O)C(=O)NCC(=O)O [Darinaparsin] + C[C@@H](Oc1cc(-c2cnn(C3CCNCC3)c2)cnc1N)c1c(Cl)ccc(F)c1Cl [Crizotinib] (partner 1 µM)
Method in brief: as §1

[4] = compound: C1CC2=C(C1)C=C(C=C2)OC3=NC(=C4C(=N3)N(C=N4)CC5=CC=C(C=C5)C6=CC=CC=C6)N[C@@H](CC7=CC=CC=C7)CO [QS11] + O=C(c1cc(Cc2n[nH]c(=O)c3ccccc23)ccc1F)N1CCN(C(=O)C2CC2)CC1 [Olaparib] (partner 8 µM)
Method in brief: as §1

Q: What does the source list for LCLC-97TM1?
A: relative viability ([1]; first compound 0.08 µM): 0.741; relative viability ([1]; first compound 0.253 µM): 0.501; relative viability ([1]; first compound 0.8 µM): 0.352; relative viability ([1]; first compound 2.53 µM): 0.413; relative viability ([1]; first compound 8 µM): 0.205; relative viability ([2]; first compound 0.08 µM): 0.239; relative viability ([2]; first compound 0.253 µM): 0.202; relative viability ([2]; first compound 0.8 µM): 0.235; relative viability ([2]; first compound 2.53 µM): 0.211; relative viability ([2]; first compound 8 µM): 0.167; relative viability ([3]; first compound 0.08 µM): 0.517; relative viability ([3]; first compound 0.8 µM): 0.354; relative viability ([3]; first compound 2.53 µM): 0.271; relative viability ([3]; first compound 8 µM): 0.372; relative viability ([4]; first compound 0.253 µM): 0.428; relative viability ([4]; first compound 2.53 µM): 0.495; relative viability ([4]; first compound 8 µM): 0.464
